How the values were obtained:
Type in all cases: in vivo
[1] = tested on: barnyardgrass (Echinochloa crus-galli); experiment: Test A preemergence, directed soil spray, visual injury rating; details: Echinochloa crus-galli, pre-emergence, 240 h, 0 is no effect, 100 is complete control, read-out: Plant response rating (0 to 100 scale), Barnyardgrass; for pest or weed control at 125 g/ha: 125 g ai/ha; for pest or weed control at 500 g/ha: 500 g ai/ha
Procedure, shortened: (§1)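 Injury ratings, 0 (no effect) to 100 (complete control), were scored visually versus untreated plants roughly 10 d after treatment under greenhouse conditions. Treatments used surfactant-containing solvent formulations, sprayed onto soil preemergence or onto one- to two-leaf seedlings (2-10 cm) postemergence, grown in a loam-sand mix.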

[2] = tested on: kochia (Kochia scoparia); experiment: as above; details: Bassia scoparia, pre-emergence, 240 h, 0 is no effect, 100 is complete control, read-out: Plant response rating (0 to 100 scale), Kochia; for pest or weed control at 125 g/ha: 125 g ai/ha; for pest or weed control at 500 g/ha: 500 g ai/ha
Procedure, shortened: as §1

[3] = tested on: pigweed (Amaranthus retroflexus); experiment: as above; details: Amaranthus retroflexus, pre-emergence, 240 h, 0 is no effect, 100 is complete control, read-out: Plant response rating (0 to 100 scale), Pigweed; for pest or weed control at 125 g/ha: 125 g ai/ha; for pest or weed control at 500 g/ha: 500 g ai/ha
Procedure, shortened: as §1

[4] = tested on: ragweed (common ragweed, Ambrosia elatior); experiment: as above; details: Ambrosia artemisiifolia, pre-emergence, 240 h, 0 is no effect, 100 is complete control, read-out: Plant response rating (0 to 100 scale), Ragweed; for pest or weed control at 125 g/ha: 125 g ai/ha; for pest or weed control at 500 g/ha: 500 g ai/ha
Procedure, shortened: as §1

[5] = tested on: ryegrass, It. (Italian ryegrass, Lolium multiflorum); experiment: as above; details: Lolium multiflorum, pre-emergence, 240 h, 0 is no effect, 100 is complete control, read-out: Plant response rating (0 to 100 scale), Ryegrass, It.; for pest or weed control at 125 g/ha: 125 g ai/ha; for pest or weed control at 500 g/ha: 500 g ai/ha
Procedure, shortened: as §1

[6] = tested on: barnyardgrass (Echinochloa crus-galli); experiment: Test B flooded paddy test, visual rating; details: Echinochloa crus-galli, 360 h; Flood, 250 g ai/ha, applied to paddy water, rated after 13 to 15 d; read-out: Barnyardgrass plant response rating (0 to 100 scale, 0 is no effect, 100 is complete control)
Procedure, shortened: (§2)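 Ratings use a 0-100 visual scale, where 100 is complete control, and compare treated plants with controls after 13 to 15 d of greenhouse growth. Compound went straight into paddy water kept 3 cm over the soil surface, applied to seedlings at the 2-leaf stage.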

[7] = tested on: ducksalad (Heteranthera limosa); experiment: Test B flooded paddy test, visual rating; details: Heteranthera limosa, 360 h; Flood, 250 g ai/ha, applied to paddy water, rated after 13 to 15 d; read-out: Ducksalad plant response rating (0 to 100 scale, 0 is no effect, 100 is complete control)
Procedure, shortened: as §2

[8] = tested on: rice (Oryza sativa); experiment: Test B flooded paddy test, visual rating; details: Oryza sativa, 360 h; Flood, 250 g ai/ha, applied to paddy water, rated after 13 to 15 d; read-out: Rice plant response rating (0 to 100 scale, 0 is no effect, 100 is complete control)
Procedure, shortened: as §2

[9] = tested on: sedge, umbrella (small-flower umbrella sedge, Cyperus difformis); experiment: Test B flooded paddy test, visual rating; details: Cyperus difformis, 360 h; Flood, 250 g ai/ha, applied to paddy water, rated after 13 to 15 d; read-out: Sedge, Umbrella plant response rating (0 to 100 scale, 0 is no effect, 100 is complete control)
Procedure, shortened: as §2

[10] = tested on: barnyardgrass (Echinochloa crus-galli); experiment: Test A postemergence application, visual injury rating; details: Echinochloa crus-galli, post-emergence, 240 h, 0 to 100 scale, 0 no effect, 100 complete control, read-out: Barnyardgrass plant response rating; for pest or weed control at 125 g/ha: 125 g ai/ha; for pest or weed control at 500 g/ha: 500 g ai/ha
Procedure, shortened: as §1

[11] = tested on: blackgrass (Alopecurus myosuroides); experiment: as above; details: Alopecurus myosuroides, post-emergence, 240 h, 0 to 100 scale, 0 no effect, 100 complete control, read-out: Blackgrass plant response rating; for pest or weed control at 125 g/ha: 125 g ai/ha; for pest or weed control at 500 g/ha: 500 g ai/ha
Procedure, shortened: as §1

[12] = tested on: corn (Zea mays); experiment: as above; details: Zea mays, post-emergence, 240 h, 0 to 100 scale, 0 no effect, 100 complete control, read-out: Corn plant response rating; for plant injury at 125 g/ha: 125 g ai/ha; for plant injury at 500 g/ha: 500 g ai/ha
Procedure, shortened: as §1

[13] = tested on: foxtail, giant (giant foxtail, Setaria faberii); experiment: as above; details: Setaria faberi, post-emergence, 240 h, 0 to 100 scale, 0 no effect, 100 complete control, read-out: Foxtail, Giant plant response rating; for pest or weed control at 125 g/ha: 125 g ai/ha; for pest or weed control at 500 g/ha: 500 g ai/ha
Procedure, shortened: as §1

[14] = tested on: galium (catchweed bedstraw, Galium aparine); experiment: as above; details: Galium, post-emergence, 240 h, 0 to 100 scale, 0 no effect, 100 complete control, read-out: Galium plant response rating; for pest or weed control at 125 g/ha: 125 g ai/ha; for pest or weed control at 500 g/ha: 500 g ai/ha
Procedure, shortened: as §1

[15] = tested on: kochia (Kochia scoparia); experiment: as above; details: Bassia scoparia, post-emergence, 240 h, 0 to 100 scale, 0 no effect, 100 complete control, read-out: Kochia plant response rating; for pest or weed control at 125 g/ha: 125 g ai/ha; for pest or weed control at 500 g/ha: 500 g ai/ha
Procedure, shortened: as §1

[16] = tested on: pigweed (Amaranthus retroflexus); experiment: as above; details: Amaranthus retroflexus, post-emergence, 240 h, 0 to 100 scale, 0 no effect, 100 complete control, read-out: Pigweed plant response rating; for pest or weed control at 125 g/ha: 125 g ai/ha; for pest or weed control at 500 g/ha: 500 g ai/ha
Procedure, shortened: as §1

[17] = tested on: ragweed (common ragweed, Ambrosia elatior); experiment: as above; details: Ambrosia artemisiifolia, post-emergence, 240 h, 0 to 100 scale, 0 no effect, 100 complete control, read-out: Ragweed plant response rating; for pest or weed control at 125 g/ha: 125 g ai/ha; for pest or weed control at 500 g/ha: 500 g ai/ha
Procedure, shortened: as §1

[18] = tested on: ryegrass, It. (Italian ryegrass, Lolium multiflorum); experiment: as above; details: Lolium multiflorum, post-emergence, 240 h, 0 to 100 scale, 0 no effect, 100 complete control, read-out: Ryegrass, It. plant response rating; for pest or weed control at 125 g/ha: 125 g ai/ha; for pest or weed control at 500 g/ha: 500 g ai/ha
Procedure, shortened: as §1

[19] = tested on: wheat (Triticum aestivum); experiment: as above; details: Triticum aestivum, post-emergence, 240 h, 0 to 100 scale, 0 no effect, 100 complete control, read-out: Wheat plant response rating; for plant injury at 125 g/ha: 125 g ai/ha; for plant injury at 500 g/ha: 500 g ai/ha
Procedure, shortened: as §1

Cc1cc2ccc(C)c(-c3c(O)c(C)nn(C)c3=O)c2o1 [Compound 10, 4-(2,6-dimethyl-7-benzofuranyl)-5-hydroxy-2,6-dimethyl-3(2H)-pyridazinone]
pest or weed control at 125 g/ha [1]: 80% | pest or weed control at 500 g/ha [1]: 90% | pest or weed control at 125 g/ha [2]: 100% | pest or weed control at 500 g/ha [2]: 100% | pest or weed control at 125 g/ha [3]: 100% | pest or weed control at 500 g/ha [3]: 100% | pest or weed control at 125 g/ha [4]: 90% | pest or weed control at 500 g/ha [4]: 90% | pest or weed control at 125 g/ha [5]: 100% | pest or weed control at 500 g/ha [5]: 100% | pest or weed control at 250 g/ha [6]: 0% | pest or weed control at 250 g/ha [7]: 0% | plant injury at 250 g/ha [8]: 0% | pest or weed control at 250 g/ha [9]: 0% | pest or weed control at 125 g/ha [10]: 50% | pest or weed control at 500 g/ha [10]: 90% | pest or weed control at 125 g/ha [11]: 60% | pest or weed control at 500 g/ha [11]: 90% | plant injury at 125 g/ha [12]: 10% | plant injury at 500 g/ha [12]: 30% | pest or weed control at 125 g/ha [13]: 80% | pest or weed control at 500 g/ha [13]: 90% | pest or weed control at 125 g/ha [14]: 100% | pest or weed control at 500 g/ha [14]: 100% | pest or weed control at 125 g/ha [15]: 100% | pest or weed control at 500 g/ha [15]: 100% | pest or weed control at 125 g/ha [16]: 90% | pest or weed control at 500 g/ha [16]: 100% | pest or weed control at 125 g/ha [17]: 100% | pest or weed control at 500 g/ha [17]: 100% | pest or weed control at 125 g/ha [18]: 100% | pest or weed control at 500 g/ha [18]: 100% | plant injury at 125 g/ha [19]: 20% | plant injury at 500 g/ha [19]: 60%

CC(=O)Oc1c(C)nn(C)c(=O)c1-c1c(C)ccc2cc(C)oc12 [Compound 11, 5-(acetyloxy)-4-(2,6-dimethyl-7-benzofuranyl)-2,6-dimethyl-3(2H)-pyridazinone]
pest or weed control at 125 g/ha [1]: 50% | pest or weed control at 500 g/ha [1]: 100% | pest or weed control at 125 g/ha [2]: 90% | pest or weed control at 500 g/ha [2]: 100% | pest or weed control at 125 g/ha [3]: 100% | pest or weed control at 500 g/ha [3]: 100% | pest or weed control at 125 g/ha [4]: 90% | pest or weed control at 500 g/ha [4]: 100% | pest or weed control at 125 g/ha [5]: 100% | pest or weed control at 500 g/ha [5]: 100% | pest or weed control at 250 g/ha [6]: 0% | pest or weed control at 250 g/ha [7]: 0% | plant injury at 250 g/ha [8]: 0% | pest or weed control at 250 g/ha [9]: 0% | pest or weed control at 125 g/ha [10]: 30% | pest or weed control at 500 g/ha [10]: 60% | pest or weed control at 125 g/ha [11]: 60% | pest or weed control at 500 g/ha [11]: 90% | plant injury at 125 g/ha [12]: 0% | plant injury at 500 g/ha [12]: 30% | pest or weed control at 125 g/ha [13]: 60% | pest or weed control at 500 g/ha [13]: 80% | pest or weed control at 125 g/ha [14]: 90% | pest or weed control at 500 g/ha [14]: 90% | pest or weed control at 125 g/ha [15]: 100% | pest or weed control at 500 g/ha [15]: 100% | pest or weed control at 125 g/ha [16]: 90% | pest or weed control at 500 g/ha [16]: 100% | pest or weed control at 125 g/ha [17]: 100% | pest or weed control at 500 g/ha [17]: 100% | pest or weed control at 125 g/ha [18]: 100% | pest or weed control at 500 g/ha [18]: 100% | plant injury at 125 g/ha [19]: 0% | plant injury at 500 g/ha [19]: 40%

CC(=O)Oc1c(C)nn(C)c(=O)c1-c1cccc2cc(C)oc12 [Compound 13, 5-(acetyloxy)-2,6-dimethyl-4-(2-methyl-7-benzofuranyl)-3 (2H)-pyridazinone]
pest or weed control at 125 g/ha [1]: 20% | pest or weed control at 500 g/ha [1]: 60% | pest or weed control at 125 g/ha [2]: 0% | pest or weed control at 500 g/ha [2]: 100% | pest or weed control at 125 g/ha [3]: 40% | pest or weed control at 500 g/ha [3]: 100% | pest or weed control at 125 g/ha [4]: 40% | pest or weed control at 500 g/ha [4]: 80% | pest or weed control at 125 g/ha [5]: 100% | pest or weed control at 500 g/ha [5]: 100% | pest or weed control at 125 g/ha [10]: 0% | pest or weed control at 500 g/ha [10]: 50% | pest or weed control at 125 g/ha [11]: 60% | pest or weed control at 500 g/ha [11]: 80% | plant injury at 125 g/ha [12]: 0% | plant injury at 500 g/ha [12]: 20% | pest or weed control at 125 g/ha [13]: 30% | pest or weed control at 500 g/ha [13]: 50% | pest or weed control at 125 g/ha [14]: 80% | pest or weed control at 500 g/ha [14]: 90% | pest or weed control at 125 g/ha [15]: 50% | pest or weed control at 500 g/ha [15]: 80% | pest or weed control at 125 g/ha [16]: 60% | pest or weed control at 500 g/ha [16]: 70% | pest or weed control at 125 g/ha [17]: 50% | pest or weed control at 500 g/ha [17]: 70% | pest or weed control at 125 g/ha [18]: 90% | pest or weed control at 500 g/ha [18]: 100% | plant injury at 125 g/ha [19]: 0% | plant injury at 500 g/ha [19]: 20%

Reference: US10750743B2, “Pyridazinone herbicides” (E.I. DU PONT DE NEMOURS AND COMPANY, priority 2015, dated 2020)
